From US20230143752A1, “CANNABIDIOL NANODRUG FORMULATIONS AND METHODS FOR USE OF THE SAME” (priority 2020, published 2023)

Experiments:
[1] = system: mice with Auto-Immune Alopecia; test: Hair regrowth in alopecia mice, topical treatment daily for 12 weeks; assay type: in vivo; settings: for Number of animals per hair regrowth category, Category 0: 0=no hair growth; for Number of animals per hair regrowth category, Category 0 / Number of animals per hair regrowth category, Category 1 / Number of animals per hair regrowth category, Category 2 / Number of animals per hair regrowth category, Category 3 / Number of animals per hair regrowth category, Category 4: six animals per group, topical daily 12 weeks; for Number of animals per hair regrowth category, Category 1: 1=0-25% hair regrowth; for Number of animals per hair regrowth category, Category 2: 2=25-50% hair regrowth; for Number of animals per hair regrowth category, Category 3: 3=50-75% hair regrowth; for Number of animals per hair regrowth category, Category 4: 4=75-100% hair regrowth
Procedure: An animal study was carried out to determine the effect of a CBD nanoparticulate formulation comprising minoxidil as described herein on the induction of hair regrowth in alopecia mice after 12 weeks. In order to collect preliminary information on the reversal of Alopecia by CBD/minoxidil, a randomized pilot study on 24 animals was performed.
Eight- to ten-month-old mice with Auto-Immune Alopecia were randomized into four groups (six animals per group), receiving topical treatments daily for 12 weeks. Group 1 (Control group) received 0.1 ml of control solution applied topically over the ventral area daily for 12 weeks. Group 2 (CBD group) received 20 μg of CBD in 0.1 ml of control solution applied topically over the ventral area daily for 12 weeks. Group 3 (minoxidil) received 0.1 ml of 5% minoxidil solution applied topically over the ventral area daily for 12 weeks. Group 4 (CBD/minoxidil) received 20 μg of CBD and 5% minoxidil in 0.1 ml solution applied topically over the ventral area daily for 12 weeks.
Mice were sacrificed at the end point of a twelve week observation period, and skin biopsies were obtained. Skin biopsies were processed for histopathology.
Reported categories are as follows: 0=no hair growth, 1=0-25% hair regrowth, 2=25-50% hair regrowth, 3=50-75% hair regrowth, 4=75-100% hair regrowth.

[2] = system: CTLL-2 cytotoxic T lymphocytes; test: In vitro screening platform for immunomodulation (CTLL-2); assay type: cell-based; settings: CTLL-2, FIG. 4
Procedure: An in vitro screening platform for immunomodulation was used to evaluate nanoparticles for efficacy. CTLL-2 (ATCC®TIB-214™) are cytotoxic T lymphocytes that were purchased and cultured according to ATCC protocol. Once confluent, cells were seeded in a 12-well plate at a concentration of 55,000 cells/mL and treated, in triplicates, with the CBD nanoformulations described herein.
A similar experiment was carried out using CBD alone (not in nanoformulations).
In order to investigate options for improving CBD drug delivery in vitro, CBD was also formulated as a carrier-free nanoparticle and evaluated for efficacy.

[3] = alopecia mice, after 12 weeks, FIG. 6

| SMILES | Number of animals per hair regrowth category, Category 0 [1] | Number of animals per hair regrowth category, Category 1 [1] | Number of animals per hair regrowth category, Category 2 [1] | Number of animals per hair regrowth category, Category 3 [1] | Number of animals per hair regrowth category, Category 4 [1] | effect observed in histopathology [1, 3] | reducing T-lymphocytes compared to controls [2] | hair regrowth, summary ([1]; alopecia mice, 12 weeks topical) | histopathology finding in skin biopsies [1, 3] |
| --- | --- | --- | --- | --- | --- | --- | --- | --- | --- |
| Nc1cc(N2CCCCC2)nc(N)[n+]1[O-] [Minoxidil, minoxidil] | 6 | 0 | 0 | 0 | 0 | No significant effect |  |  |  |
| C=C(C)[C@@H]1CCC(C)=C[C@H]1c1c(O)cc(CCCCC)cc1O [CBD, Cannabidiol] | 6 | 0 | 0 | 0 | 0 | No significant effect | effective | none of the control (vehicle), CBD alone, or minoxidil alone mice showed significant hair regrowth | miniaturization |
